The text below walks through data of article PMC3892769 (Journal of medicinal chemistry, 2008).

What is called pIC50 is the negative decadic logarithm of the IC50, by convention in mol/L. A high value points to a low IC50.

Experiment [1] relates to human FPGS. The settings on record: at concentrations up to 1045 µM; cited from earlier work.
Experiment [2] has as its target T1, T. gondii TS (Toxoplasma gondii, UniProt Q07422).
T1 sequence (Q07422 1-610): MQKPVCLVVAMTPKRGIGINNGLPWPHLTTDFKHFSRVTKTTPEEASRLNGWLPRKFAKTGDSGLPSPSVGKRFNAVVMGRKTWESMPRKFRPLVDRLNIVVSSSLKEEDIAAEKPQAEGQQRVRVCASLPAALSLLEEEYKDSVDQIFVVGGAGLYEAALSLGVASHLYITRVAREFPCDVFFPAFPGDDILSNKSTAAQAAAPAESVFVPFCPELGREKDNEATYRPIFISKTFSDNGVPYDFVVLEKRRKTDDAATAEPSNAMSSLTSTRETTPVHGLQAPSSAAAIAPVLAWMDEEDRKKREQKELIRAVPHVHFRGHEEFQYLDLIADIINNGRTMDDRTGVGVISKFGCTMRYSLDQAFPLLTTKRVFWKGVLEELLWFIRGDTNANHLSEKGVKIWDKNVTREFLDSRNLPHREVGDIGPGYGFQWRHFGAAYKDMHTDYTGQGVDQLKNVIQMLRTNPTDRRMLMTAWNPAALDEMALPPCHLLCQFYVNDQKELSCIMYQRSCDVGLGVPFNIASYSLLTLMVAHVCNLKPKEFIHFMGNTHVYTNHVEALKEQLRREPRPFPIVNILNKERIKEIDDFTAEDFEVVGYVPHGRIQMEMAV
The experiment in a line: biochemical.

Experiment [3] concerns the target T2, human DHFR (Homo sapiens, UniProt P00374).
T2 sequence (P00374 1-187): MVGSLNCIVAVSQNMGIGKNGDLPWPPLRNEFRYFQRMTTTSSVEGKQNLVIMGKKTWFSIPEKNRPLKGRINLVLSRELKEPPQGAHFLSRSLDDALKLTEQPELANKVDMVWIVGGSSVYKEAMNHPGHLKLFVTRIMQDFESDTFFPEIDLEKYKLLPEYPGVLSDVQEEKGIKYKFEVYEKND
The experiment in a line: Inhibition of human DHFR. The format is biochemical.

Experiment [4] deals with T3, T. gondii DHFR (Toxoplasma gondii, UniProt Q07422).
T3 sequence (Q07422 1-610): T1 sequence (Q07422 1-610)
The experiment in a line: biochemical.

Experiment [5] addresses E. coli DHFR (Escherichia coli, UniProt P0ABQ4). The experiment in a line: Inhibition of E. coli DHFR. In kind it is biochemical. The following applies: read-out: % inhibition of E. coli DHFR at the stated concentration.
The target in experiment [6] is E. coli TS (Escherichia coli, UniProt P0A884). Briefly: Inhibition of E. coli TS. The format is biochemical.
Experiment [7] has as its target human TS (Homo sapiens, UniProt P04818). Briefly: Inhibition of human TS. The format is biochemical.

Structures are written as SMILES. pIC50: −log10 of the molar value. Where only a bound is given, the exact number is not on record here.

Chain of E. coli TS (P0A884 whole entry): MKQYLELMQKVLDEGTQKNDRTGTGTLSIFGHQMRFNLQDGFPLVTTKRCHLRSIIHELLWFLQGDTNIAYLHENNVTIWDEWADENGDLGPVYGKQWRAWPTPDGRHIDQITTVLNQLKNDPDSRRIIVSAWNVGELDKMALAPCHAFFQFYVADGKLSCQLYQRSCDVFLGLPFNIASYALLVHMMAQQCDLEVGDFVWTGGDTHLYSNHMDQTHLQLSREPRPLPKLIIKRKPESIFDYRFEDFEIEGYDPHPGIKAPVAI
Chain of E. coli DHFR (P0ABQ4 whole entry): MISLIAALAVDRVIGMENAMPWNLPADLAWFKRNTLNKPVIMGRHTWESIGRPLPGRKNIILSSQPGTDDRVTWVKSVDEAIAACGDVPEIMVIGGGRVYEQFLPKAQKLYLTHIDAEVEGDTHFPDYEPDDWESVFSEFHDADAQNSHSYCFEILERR
Chain of human TS (P04818 whole entry): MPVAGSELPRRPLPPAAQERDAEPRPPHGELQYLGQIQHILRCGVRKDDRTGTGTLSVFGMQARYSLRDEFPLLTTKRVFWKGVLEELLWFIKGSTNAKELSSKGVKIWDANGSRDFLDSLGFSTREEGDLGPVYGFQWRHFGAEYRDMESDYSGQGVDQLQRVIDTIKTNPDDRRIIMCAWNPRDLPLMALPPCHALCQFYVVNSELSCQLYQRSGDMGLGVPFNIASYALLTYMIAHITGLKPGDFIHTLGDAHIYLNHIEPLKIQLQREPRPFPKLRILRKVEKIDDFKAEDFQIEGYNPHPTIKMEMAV

As to `Cc1[nH]c2nc(N)[nH]c(=O)c2c1Sc1ccc(C(=O)N[C@@H](CCC(=O)O)C(=O)O)cc1` [Compound 1, N-{4-[(2-amino-6-methyl-4-oxo-4,7-dihydro-3H-pyrrolo[2,3-d]pyrimidin-5-yl)thio]benzoyl}-L-glutamic acid], in experiment [1], the “Substrate for human FPGS” value was “not a substrate”.
As to `COc1ccc(OC)c(Sc2c(C)sc3nc(N)[nH]c(=O)c23)c1` [Compound 8, 2-Amino-5-[(2,5-dimethoxyphenyl)sulfanyl]-6-methylthieno[2,3-d]pyrimidin-4(3H)-one], the pIC50 in experiment [2] was less than 4.64; in experiment [3] it was 4.66; in experiment [4], 7.25; in experiment [6], less than 4.64; in experiment [7] it was 5.34. In addition, the inhibition at 23 µM in experiment [2] (read-out: % inhibition of T. gondii TS at the stated concentration) was 0%; in experiment [6] (read-out: % inhibition of E. coli TS at the stated concentration), 36%. Besides, the inhibition at 28 µM in experiment [5] was determined as 0%.
